As usually defined, the GI50 is the concentration giving 50% growth inhibition. Low readings indicate more potent growth inhibition, high ones less potent growth inhibition.

The values below come from patent US20210379012A1, “ANTIANGIOGENIC CHROMANE DERIVATIVE AND USES THEREOF” (Indiana University Research and Technology Corporation, priority 2018, published 2021).

Assay type in all cases: cell-based
Assay [1] relates to human retinal endothelial cells (HRECs). Nature of the assay: alamarBlue proliferation assay, HRECs. Conditions: HREC, 48 hours' incubation. Here is the method: (§1) EBM-2 and IMDM growth media were purchased from Lonza (Walkersville, Md., USA). RPMI and DMEM media were purchased from Thermo Scientific (Waltham, Mass., USA). ARPE19 cells were obtained from ATCC (Manassas, Va., USA). HRECs and Attachment Factor were purchased from Cell Systems (Kirkland, Wash., USA) and were used between passages 5 and 8. Endothelial Growth Medium (EGM-2) was prepared by mixing the contents of an EGM-2 “Bullet Kit” (Cat. no. CC-4176) with Endothelial Basal Medium (EBM) (Lonza). The EGM-2 “Bullet Kit” contains hydrocortisone, human fibroblast growth factor (hFGF), VEGF, R3-insulin like growth factor (R3-IGF-1), ascorbic acid, human epidermal growth factor (hEGF), gentamycin and heparin along with 2% fetal bovine serum (FBS). ARPE19 cells were grown in DEM medium containing 10% FBS and 1% penicillin-streptomycin (pen-strep). 92-1 cells were grown in RPMI medium containing 10% FBS and 1% pen-strep. Y79 cells were grown in RB medium (IMDM+10% FBS+55 μM β-mercaptoethanol+10 μg/mL Insulin+1% pen-strep). […]
(§2) The proliferation of cells was monitored by an alamarBlue based fluorescence assay. […] At the end of the incubation, 11.1 μL of alamarBlue reagent was added and 4 hours after, fluorescence readings were taken with excitation and emission wavelengths of 560 nm and 590 nm respectively. Data were analyzed and dose response curves generated using GraphPad Prism software (v. 6.0).

For assay [2], the system named is ARPE19 retinal pigment epithelial cells. The assay is described as follows: alamarBlue proliferation assay, ARPE19. Conditions: Homo sapiens, ARPE-19, 48 hours' incubation. Here is the method: as §1, §2
On the technique in general: The colour change of resazurin is a common sign of viable cells or microbes.

In a further assay the test system is Y79 retinoblastoma cells. Nature of the assay: alamarBlue proliferation assay, Y79. The following applies: 48 hours' incubation. As for the experimental part: as §1, §2
Assay [3] deals with 92-1 uveal melanoma cells. The assay is described as follows: alamarBlue proliferation assay, 92-1. The following applies: 48 hours' incubation. As for the experimental part: as §1, §2

Structures are written as SMILES.

For the compound `COc1ccc(CC2COc3cc(OC)c(OC)c(OC)c3C2)cc1O` (stereo not shown) [compound (1)], the GI50 in assay [1] is 0.00152 µM; in assay [2], over 100 µM; with Y79 retinoblastoma cells, 17 µM; in assay [3] it was 28 µM.
